Results on five molecules are retold here after patent publication US20220088204A1, “ANTICANCER DRUGS AND METHODS OF MAKING AND USING SAME” (YALE UNIVERSITY, priority 2019, published 2022).

Entries after “also recorded” stand apart in the source; their conditions may differ. Some results are limits rather than exact numbers.

In data set [1] the test system is PEO1 ovarian cancer cells. As to the kind of experiment: pH-dependent cell growth inhibition, transient treatment. The data set is classed as cell-based. The following applies: pH 7.4 vs pH 6.2. On the procedure: FIG. 9 depicts pH-dependent cell growth inhibition of PEO1 ovarian cancer cells in culture, treated transiently with various prodrugs of the invention, as described above.
FIG. 10 depicts pH-dependent cell growth inhibition of PEO1 ovarian cancer cells in culture, treated transiently with an anticancer kinase inhibitor drug, Osimertinib, or a compound of the invention, based on an active core of that drug, YU253673.
(§1) In order to evaluate pH-dependent activity, treatments are performed at atypical cell culture conditions. […] Several cell lines have been evaluated using this method and for each, cell seeding density and treatment duration is independently experimentally determined. Each experiment is normalized to sham and complete activity controls for each pH condition.
Similar results have been obtained from pH-dependent cell growth inhibition assays with other classes of Drug using the prodrug approach.

The nature of data set [2]: Blood levels after tail vein injection. Type of data set: in vivo, adult female balb/c mice. On the procedure: Given that the drug's distribution and clearance can be expected to be substantially complete by about 6 hours after administration, in certain embodiments the peak intracellular dose is achieved long before this process might interfere to a significant degree, even assuming the altered metabolite is indeed compromised in its activity. […] In certain embodiments, the serum stability of YU241528 allows for effective therapy. […] In certain embodiments, the prodrug undergoes a different elimination path, as hepatobiliary elimination of weakly-ionic organic substances is sensitive to charge, size, and lipophilicity.

A further data set deals with HeLa cells. Briefly: pH-dependent cell uptake by flow cytometry. The data set is classed as cell-based. The following applies: HeLa cells in suspension, 5 μM, 1 hour, pH 7.4 vs pH 6.5. An excerpt:
FIGS. 5A-5B depict representative flow cytometry traces of pH-dependent cell treatments. […] Normalized cell counts (Y-axes) are plotted vs. doxorubicin fluorescence intensity per cell (X-axes).

Data set [3] can be described thus: pKA of the ionizable group. Type of data set: physicochemical. Particulars: read-out: acidic pKA of the carboxyl group. An excerpt: The Henderson-Hasselbalch equation allows for calculating the neutral fraction of an ionizable drug at healthy tissue vs. tumor extracellular pH, and thus predicting the associated cell-permeable fractions. […] The carboxyl group of YU241528 has an acidic pKA of ˜4.4, so the predicted membrane permeable fraction is ˜8-fold less at a pH of 7.4 than at 6.5.

Data set [4] is described as follows: Serum stability of prodrug in 20% mouse serum (LCMS, 490 nm). The following applies: 37° C. Type of data set: in vitro ADME. As for the experimental part: FIG. 4A depicts liquid chromatography data showing the stability of YU241528 in serum.
The prodrug strategies of this invention are thought to impart their benefits during the distribution and cell uptake steps of anticancer therapy. In certain embodiments, a prodrug is stable in the blood for a period sufficient to allow for cell uptake and systemic clearance. To test this, 50 μM YU241528 in a solution of PBS, pH 7.4, containing 20% mouse serum was incubated at 37° C. At regular intervals, aliquots were taken and mixed with 2 volumes of ethanol to precipitate serum proteins, then centrifuged. Supernatants were analyzed by LCMS. […] The predominant peak was identified as YU241528 by mass spectrometry.

Data set [5] in a line: Reductive activation / drug release in 5 mM GSH (simulated cytosol), LCMS. Type of data set: in vitro ADME. Particulars: PBS containing 5 mM GSH, PBS pH 7.4, 5 mM GSH, 37° C., read-out: t1/2 of reduction of the disulfide. As for the experimental part:
In certain embodiments, the prodrug releases the active form of the drug once inside a cancer cell. Once inside the cell, drug release can be triggered by reduction of the disulfide bond in the linker. To evaluate the reductive activation of drug release, 50 μM YU241528 in a solution of PBS, pH 7.4, containing 5 mM GSH (a typical intracellular concentration of the predominant biological reducing agent) was incubated at 37° C. Aliquots were taken at regular intervals and analyzed by LCMS.

Data set [6] is described as follows: Body weight of treated tumor-bearing mice. Type of data set: in vivo, Balb/c mice. Particulars: IV once daily for 5 days, mice with EMT-6 flank tumors. An excerpt: FIG. 7 depicts representative in vivo study on the efficacy and toxicity of compounds of the invention. […] Mean tumor volume and mean body weight graphs are shown for groups of 10 tumor-bearing mice.

In data set [7] the test system is MDA-MB-231 breast cancer cells. Briefly: pH-dependent cell growth inhibition, CellTiter-Glo. The data set is classed as cell-based, Human. The following applies: 6 hours treatment at pH 7.4 vs pH 6.2, 72 hours growth. As for the experimental part:
Cells treated for 6 hours at pH 7.4 (normal physiological pH, X traces) or pH 6.2 (acidic solid tumor pH, Y traces) were subsequently allowed to grow in normal growth medium for 72 hours, then cell viability was evaluated using the CellTiter-Glo assay kit (Promega). Normalized percent cell growth inhibition is plotted on the left side of each panel and IC50 values reported at each pH from non-linear regression analysis.
as §1
Human MDA-MB-231 breast cancer cells seeded at low density on tissue culture treated 384-well plates, allowed to adhere and grow in serum-supplemented growth medium for 24 hours, then treated under pH-controlled conditions for 6 hours, and finally washed and grown in fresh growth media for 72 hours were assessed for cell survival using the CellTiter-Glo assay system (Promega) (FIG. 6).

The conditions of data set [8]: cited from earlier work.

Take `C=CC(=O)Nc1cc(Nc2nccc(-c3cn(C)c4ccccc34)n2)c(OC)cc1N(C)CCN(C)C` [Osimertinib]: the “pH-dependent bias of cell growth inhibition” value in data set [1] is recorded as “slightly lower IC50 value at healthy pH 7.4”.

For `COc1cccc2c1C(=O)c1c(O)c3c(c(O)c1C2=O)C[C@@](O)(C(=O)CO)C[C@@H]3O[C@H]1C[C@H](NC(=O)OCCSSCc2ccc(C(=O)O)cc2)[C@H](O)[C@H](C)O1` [YU241528], the “level in the blood at 6 hours post injection” value in data set [2] (6 hours) is “detectable levels”. In [2] (24 hours), the “level in the blood at 24 hours post injection” value is on record as “undetectable”. For the same molecule, the half-life in [2] (female, balb/c, mouse, blood, intravenous, read-out: non-compartmental half-life in blood (converted)) is about 1 h. Also, the “pH preference of cell uptake” value with HeLa cells is “preferentially taken up by cells at cancerous pH 6.5 versus cells at normal pH 7.4”. Also, the pKa in data set [3] was about 4.4. In addition, the “release of free doxorubicin in serum” value in [4] (50 μM, 20% mouse serum, over 6 hours of incubation) is “no active doxorubicin is released; also recorded: no free doxorubicin was detected”. Also, the half-life at 50 μM in data set [4] (mouse, 20% mouse serum in PBS, pH 7.4, 50 μM, PBS pH 7.4, 20% mouse serum, read-out: t1/2 of interaction with serum) was over 6 h; in [5], about 2.7 min.

Regarding `COc1cccc2c1C(=O)c1c(O)c3c(c(O)c1C2=O)C[C@@](O)(C(=O)CO)C[C@@H]3O[C@H]1C[C@H](NC(=O)OCCSSCCCCCCCC(=O)O)[C@H](O)[C@H](C)O1` [YU241531], in [6], the “weight loss (mean body weight) compared to sham treated controls” value was “no detectable weight loss”. Further, in [7], the “pH-dependent bias of cell growth inhibition” value is “greater growth inhibition at acidic tumor pH”.

Take `COc1cccc2c1C(=O)c1c(O)c3c(c(O)c1C2=O)C[C@@](O)(C(=O)CO)C[C@@H]3O[C@H]1C[C@H](NC(=O)OCCSSCCCc2c(F)c(F)c(O)c(F)c2F)[C@H](O)[C@H](C)O1` [YU244206]: the “weight loss (mean body weight) compared to sham treated controls” value in data set [6] is on record as “no detectable weight loss”. Further, the “pH-dependent bias of cell growth inhibition” value in data set [7] is on record as “greater growth inhibition at acidic tumor pH”.

For `COc1cccc2c1C(=O)c1c(O)c3c(c(O)c1C2=O)C[C@@](O)(C(=O)CO)C[C@@H]3O[C@H]1C[C@H](N)[C@H](O)[C@H](C)O1` [doxorubicin, reference compound], the “pH preference of cell uptake” value in the data set with HeLa cells is “greater uptake into cells at normal physiologic pH 7.4 than into cells at cancerous pH 6.5”. Moreover, the “basic pKA of the amine group” value in [8] is reported as about 8. For the same molecule, in data set [7], the “pH-dependent bias of cell growth inhibition” value was “greater growth inhibition at basic healthy pH”.
